Article PMC5320518, “Novel Liver-targeted conjugates of Glycogen Phosphorylase Inhibitor PSN-357 for the Treatment of Diabetes: Design, Synthesis, Pharmacokinetic and Pharmacological Evaluations” (Scientific Reports, 2017)
“And” between values parts separate entries of the source, which are not always exact repeats. Equal entries are not always repeated. Where two headings read alike, the source gives them in different places.

Tests used:
[1] = Stability in simulated gastric fluid (SGF); format: in vitro ADME; conditions: SGF pH 1.21 with pepsin, 2 μM, 37 °C; for stability in SGF (in words): 24 h incubation
Protocol: (§1) All the conjugates were tested for their chemical and metabolic stability in multiple assays, including simulated gastric fluid (SGF), simulated interstinal fluid (SIF), mouse plasma, and mouse liver microsome (MLM).
(§2) For the stability in SGF (Fig. 8) and SIF (Fig. 9), the conjugates could be divided into three groups: (1) stable conjugates 2, 6 and 9. […] The two conjugates were degraded within 6 h and 1 h in SGF and SIF, respectively, with alomost no conjugates at the end of the 24 h incubation in both SGF and SIF; (3) complicated conjugates 3, 4, 5 and 8.
(§3) The simulated gastrointestinal fluids were prepared according to USP specifications. For SGF, NaCl (0.12 g) and pepsin (0.18 g, from porcine stomach mucosa) was dissolved in HCl (0.42 mL) and sufficient H2O was added to make 60 mL. The pH of the test solution was determined as 1.21 by pH meter. For the SIF, KH2PO4 (0.408 g) and pancreatin (0.6 g, from porcine pancreas) was dissolved in H2O (60 mL). The pH of the test solution was determined as 6.79 by pH meter. Each test compound was dissolved in DMSO and diluted to a final concentration of 2 μM in SIF and SGF. The final concentrations of DMSO and CH3CN in the incubation mixture were 0.2% and 0.45%. Aliquots of these solutions were pipetted into glass tubes, and placed in a 37 °C shaking water bath. Test samples at corresponding time point (1, 2, 6, 24 h) were removed at the end of incubation time and immediately mixed with 800 μL of cold acetonitrile containing 500 ng/mL tolbutamide (internal standard). Samples were subjected to centrifuge at 4000 rpm, 4 °C for 20 min. Aliquots 60 μL of supernatant was combined with 120 μL water for LC-MS/MS analysis.

[2] = Stability in simulated intestinal fluid (SIF); format: in vitro ADME; conditions: for time within which degraded in SIF: SIF pH 6.79 with pancreatin, 2 μM, 37 °C
Protocol: as §1, §2, §3

[3] = molecular target: T1, rabbit muscle GPa (RMGPa) (Oryctolagus cuniculus, UniProt P00489); experiment: RMGPa inhibition assay (phosphate release from glucose-1-phosphate); format: biochemical; conditions: mean ± S.D. of three determinations; NI means no inhibition
T1 sequence (P00489 2-843 limits assumed): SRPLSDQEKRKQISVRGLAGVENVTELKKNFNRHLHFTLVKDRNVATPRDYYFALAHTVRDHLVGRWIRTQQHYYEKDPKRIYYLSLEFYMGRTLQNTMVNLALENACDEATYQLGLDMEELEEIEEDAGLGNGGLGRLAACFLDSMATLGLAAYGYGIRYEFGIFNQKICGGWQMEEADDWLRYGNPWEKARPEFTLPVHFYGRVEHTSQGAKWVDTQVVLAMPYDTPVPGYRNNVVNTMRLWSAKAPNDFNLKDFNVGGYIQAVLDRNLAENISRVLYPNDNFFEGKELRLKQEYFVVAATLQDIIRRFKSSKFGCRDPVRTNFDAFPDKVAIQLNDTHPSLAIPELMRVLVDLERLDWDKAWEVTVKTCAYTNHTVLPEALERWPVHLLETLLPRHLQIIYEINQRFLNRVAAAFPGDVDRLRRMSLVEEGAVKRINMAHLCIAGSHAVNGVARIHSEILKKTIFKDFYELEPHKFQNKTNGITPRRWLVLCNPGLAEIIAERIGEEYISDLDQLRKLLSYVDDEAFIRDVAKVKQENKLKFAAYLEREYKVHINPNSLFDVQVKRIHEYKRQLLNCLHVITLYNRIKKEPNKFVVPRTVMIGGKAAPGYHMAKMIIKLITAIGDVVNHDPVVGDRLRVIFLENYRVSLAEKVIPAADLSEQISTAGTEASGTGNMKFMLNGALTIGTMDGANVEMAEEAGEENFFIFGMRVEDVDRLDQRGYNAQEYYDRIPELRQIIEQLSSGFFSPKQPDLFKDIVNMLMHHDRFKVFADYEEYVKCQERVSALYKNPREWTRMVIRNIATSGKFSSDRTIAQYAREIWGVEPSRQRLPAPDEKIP
Protocol: All the compounds were evaluated for their inhibitory activity against rabbit muscle GPa (RMGPa). The activity of RMGPa was measured through detecting the release of phosphate from glucose-1-phosphate in the direction of glycogen synthesis. CP-91149, a well-known allosteric GP inhibitor, which shares the same binding site with PSN-357, was used as the positive control and the results are summarized in Table 1[21]. […] This remarkable loss of activity was probably due to the direct steric interference by such bulky substituent of cholic acid group. […] The results is consistent with the SARs of PSN-357 that the hydroxyl of piperidine is not an essential group for the GP inhibitory activity that could be modified slightly.
The inhibitory activity of the test compounds against rabbit muscle glycogen phosphorylase a (GPa) was monitored using microplate reader (BIO-RAD) based on the published method. In brief, GPa activity was measured in the direction of glycogen synthesis by the release of phosphate from glucose-1-phosphate. Each test compound was dissolved in DMSO and diluted at different concentrations for IC50 determination. The enzyme was added into 100 μL of buffer containing 50 mM Hepes (pH = 7.2), 100 mM KCl, 2.5 mM MgCl2, 0.5 mM glucose-1-phosphate, 1 mg/mL glycogen and the test compound in 96-well microplates (Costar). After the addition of 150 μL of 1 M HCl containing 10 mg/mL ammonium molybdate and 0.38 mg/mL malachite green, reactions were run at 22 °C for 25 min, and then the phosphate absorbance was measured at 655 nm. The IC50 values were estimated by fitting the inhibition data to a dose-dependent curve using a logistic derivative equation.

[4] = Stability in mouse liver microsomes (MLM); format: in vitro ADME; conditions: for CLint scaled at 10 μM / half-life at 10 μM / microsomal CLint at 10 μM: C57BL/6, pH 7.4, n = 3
Protocol: Additionally, the compounds’ stability in microsome were evaluated by measuring the rate of compounds consumpation in MLM and the results are shown in Table 3.
The microsomal pellet was suspended in potassium phosphate buffer (100 mM, pH 7.4), 10 μM test compound or positive control (diclofenac) was added. Liver microsomes from C57BL/6 mice (BD Gentest) were pooled. The mixture of microsome solution and compound was incubated at 37 °C for about 10 min in the presence of a NADPH-regenerating system, consisting of 0.02 M DL-isocitric acid (trisodium salt), 0.1 mg/mL isocitrate dehydrogenase and 1 mM NADPH. The addition of ice-cold CH3CN (including 100 ng/mL tolbutamide as internal standard) terminated the reaction. The mixture was vortexed for approx (30 s), centrifuged (20 min, 4000 rpm) and the supernatant was collected and analysed by LC-MS/MS method.

isolated rat hepatocytes = experiment: Glycogenolysis inhibition in isolated rat hepatocytes; format: cell-based; conditions: mean ± S.D. of three, NI means no inhibition
Text: (§4) To evaluate the effects of all compounds in cells, the glycogenolysis assays were established in both rat and human liver cells based on the published method. […] The inhibitory activities of the derivatives of PSN-357 (e.g. 25–28) were also explored. It is not surprising that the derivatives still retained micromolar inhibitory activities. Introduction of steric bulks to the hydroxyl group (e.g. 33, 40, 42, 48) led to a complete loss of activity. Data analysis indicated no clear SAR for the substitutents in the cell-based assays.
(§5) The inhibition of hepatic glycogenolysis was monitored by the measurement of liver glycogen, which was done quantitatively by the anthrone reagent (Sigma) colorimetric method based on the published method. Isolated rat hepatocytes or HepG2 cells (Sigma) were treated with the test compound or DMSO solvent (final concentration, 0.10%), followed by 60-min incubation with 0.3 nM glucagon (GGN). Assays were terminated by centrifugation, and cells were digested with 30% KOH followed by glycogen determination. The IC50 values were estimated by fitting the inhibition data to a dose-dependent curve using a logistic derivative equation.

HepG2 cells = experiment: Glycogenolysis inhibition in HepG2 cells; format: cell-based, human; conditions: HepG2 cells, 60-min incubation with 0.3 nM glucagon, mean ± S.D. of three, NI means no inhibition, read-out: IC50 (glycogenolysis inhibition, HepG2 cells)
Text: as §4, §5

[5] = Rattus norvegicus, Hepatocyte, 1 h, read-out: IC50 (glycogenolysis inhibition, rat hepatocytes), isolated rat hepatocytes, 60-min incubation with 0.3 nM glucagon

C[C@H](CCC(=O)N[C@@H](CO)C(=O)OC1CCN(C(=O)[C@H](Cc2ccc(F)cc2)NC(=O)c2cc3cc(Cl)ncc3[nH]2)CC1)[C@H]1CC[C@H]2[C@@H]3[C@H](O)C[C@@H]4C[C@H](O)CC[C@]4(C)[C@H]3C[C@H](O)[C@]12C [Conjugate 5]
stability in SGF (in words) [1]: relatively stable | melting point: 175 to 177 °C | time within which degraded in SIF [2]: ≤ 1 h | IC50 [3]: 81.9 ± 14.4 µM | CLint scaled at 10 μM [4]: 135 mL/min/kg | half-life at 10 μM [4]: 40.8 min | microsomal CLint at 10 μM [4]: 34 µL/min/mg

CC(CCC(=O)NC(Cc1ccccc1)C(=O)NC(CCCCN)C(=O)OC1CCN(C(=O)C(Cc2ccc(F)cc2)NC(=O)c2cc3cc(Cl)ncc3[nH]2)CC1)C1CCC2C3C(O)CC4CC(O)CCC4(C)C3CC(O)C12C (centres unmarked) [Conjugate 8]
stability in SGF (in words) [1]: relatively stable | IC50 (isolated rat hepatocytes; [5]): 64.5 ± 4.4 µM | time within which degraded in SIF [2]: ≤ 1 h | IC50 [3]: 10.7 ± 5.6 µM | metabolic stability in MLM (in words) [4]: considerable metabolic stability | CLint scaled at 10 μM [4]: 64.2 mL/min/kg | half-life at 10 μM [4]: 85.6 min | microsomal CLint at 10 μM [4]: 16.2 µL/min/mg | IC50 (HepG2 cells; Homo sapiens, HepG2, 1 h): 36.8 ± 4.14 µM

CC(NC(=O)C(NC(=O)CCC(C)C1CCC2C3C(O)CC4CC(O)CCC4(C)C3CC(O)C12C)C(C)C)C(=O)OC1CCN(C(=O)C(Cc2ccc(F)cc2)NC(=O)c2cc3cc(Cl)ncc3[nH]2)CC1 (centres unmarked) [Conjugate 7]
time within which degraded in SGF [1]: ≤ 6 h | IC50 (isolated rat hepatocytes; [5]): 42.1 ± 10.9 µM | time within which degraded in SIF [2]: ≤ 1 h | IC50 [3]: 6.07 ± 0.27 µM | CLint scaled at 10 μM [4]: 1180 mL/min/kg | half-life at 10 μM [4]: 4.7 min | microsomal CLint at 10 μM [4]: 297 µL/min/mg | IC50 (HepG2 cells; Homo sapiens, HepG2, 1 h): 11.7 ± 3.8 µM

C[C@H](CCC(=O)NCC(=O)OC1CCN(C(=O)[C@H](Cc2ccc(F)cc2)NC(=O)c2cc3cc(Cl)ncc3[nH]2)CC1)[C@H]1CC[C@H]2[C@@H]3[C@H](O)C[C@@H]4C[C@H](O)CC[C@]4(C)[C@H]3C[C@H](O)[C@]12C [Conjugate 1]
time within which degraded in SGF [1]: ≤ 6 h | IC50 (isolated rat hepatocytes; [5]): 41.1 ± 5.11 µM | time within which degraded in SIF [2]: ≤ 1 h | IC50 [3]: 5.9 µM and 5.94 µM | CLint scaled at 10 μM [4]: 172 mL/min/kg | half-life at 10 μM [4]: 31.9 min | microsomal CLint at 10 μM [4]: 43.4 µL/min/mg | IC50 (HepG2 cells; Homo sapiens, HepG2, 1 h): 203 ± 3.39 µM

C[C@H](CCC(=O)NCCNC(=O)c1ccc(/N=N/c2ccccc2CCC(=O)OC2CCN(C(=O)[C@H](Cc3ccc(F)cc3)NC(=O)c3cc4cc(Cl)ncc4[nH]3)CC2)cc1)[C@H]1CC[C@H]2[C@@H]3[C@H](O)C[C@@H]4C[C@H](O)CC[C@]4(C)[C@H]3C[C@H](O)[C@]12C [Conjugate 9]
stability in SGF (in words) [1]: stable | IC50 (isolated rat hepatocytes; [5]): 12.3 µM | IC50 (isolated rat hepatocytes; read-out: IC50 (glycogenolysis inhibition, rat hepatocytes), isolated rat hepatocytes, 60-min incubation with 0.3 nM glucagon): 12.3 ± 3.93 µM | melting point: 172 to 174 °C | fraction degraded during 24 h incubation in SIF [2]: no more than 20% | IC50 [3]: 51.7 ± 4.1 µM | metabolic stability in MLM (in words) [4]: considerable metabolic stability | CLint scaled at 10 μM [4]: 60.2 mL/min/kg | half-life at 10 μM [4]: 91.2 min | microsomal CLint at 10 μM [4]: 15.2 µL/min/mg | IC50 (HepG2 cells): 6.41 ± 1.25 µM | IC50 (HepG2 cells; Homo sapiens, HepG2, 1 h): 6.4 µM

C[C@H](CCC(=O)N(C)CC(=O)OC1CCN(C(=O)[C@H](Cc2ccc(F)cc2)NC(=O)c2cc3cc(Cl)ncc3[nH]2)CC1)[C@H]1CC[C@H]2[C@@H]3[C@H](O)C[C@@H]4C[C@H](O)CC[C@]4(C)[C@H]3C[C@H](O)[C@]12C [Conjugate 2]
stability in SGF (in words) [1]: stable | IC50 (isolated rat hepatocytes; [5]): 845 ± 132 µM | melting point: 183 to 185 °C | fraction degraded during 24 h incubation in SIF [2]: no more than 20% | IC50 [3]: 26 ± 13.9 µM | CLint scaled at 10 μM [4]: 220 mL/min/kg | half-life at 10 μM [4]: 24.9 min | microsomal CLint at 10 μM [4]: 55.6 µL/min/mg | IC50 (HepG2 cells; Homo sapiens, HepG2, 1 h): 172 ± 18.2 µM
